In patent US20140315972A1, “RS)-2-(2-oxo-4-phenylpyrrolidin-1-yl)acetamide compound having modulatory activity with a commensurate effect, pharmaceutical substance (variants) and its application, composition (variants) thereof” (priority 2011, published 2014):

Legend:
cAMP = cAMP level in blood plasma of mice; format: in vivo; conditions: for increase of cAMP level: mice, 60 minutes before test; for cAMP level: mouse blood plasma, one hour after a single injection
women = assay: Migraine attacks, intranasal drops; format: in vivo, human
Method: Table 27 presents the results of studies in women (22-35 years) diagnosed with migraine without aura (simple migraine)—5 subjects, and migraine with aura (classic migraine)—5 subjects. Phenotropil as used as nasal drops (0.1% sterile solution), 10 drops three times a day for 7 days for the purpose of relief and prevention of migraine attacks at onset of prodromal phenomena and aura episodes. 5 drops of the solution were administered into each nostril. One drop of the 0.1% standard solution contained 0.05 mg of Phenotropil.

[1] = 0.1% nasal drops, 10 drops three times a day 7 days
[2] = migraine attacks, humans, intranasally 0.5 mg × 3 times per day

Question: What does the source list for `NC(=O)CN1CC(c2ccccc2)CC1=O` (racemic) [Compound 1, (RS)-2-(2-oxo-4-phenylpyrrolidine-1-yl)acetamide]?
Answer: increase of cAMP level (cAMP; single i.p. 10 mg/kg): 21%; increase of cAMP level (cAMP; single i.p. 50 mg/kg): 65.5%; increase of cAMP level (cAMP; single i.p. 100 mg/kg): 96.3%; cAMP level (cAMP; 10 mg/kg): 4.56 ± 0.67 pikomol/50 μl plasma; cAMP level (cAMP; 50 mg/kg): 6.24 ± 0.81 pikomol/50 μl plasma; cAMP level (cAMP; 100 mg/kg): 7.40 ± 0.62 pikomol/50 μl plasma; patients (of 10) with headaches and their duration decreased significantly (women; [1]): 3; patients (of 10) with no effect (women; [1]): 2; patients (of 10) with prodrome and aura completely stopped without headache attacks (women; [1]): 5; Efficacy: % of subjects with no effect (women; [2]): 20%; Efficacy: % of subjects with partial effect (women; [2]): 30%; Efficacy: subjects with 100% efficacy (women; [2]): 5/10 - 100% efficacy ^; Efficacy: subjects with no effect (women; [2]): 2/10; Efficacy: subjects with partial effect (women; [2]): 3/10
